We go through three molecules from patent publication US12698342B2, “Therapy for drug-resistant cancer by administration of anti-HER2 antibody/drug conjugate” (DAIICHI SANKYO COMPANY, LIMITED, priority 2016, dated 2026).

For assay [1], the target named is T1, topoisomerase I (Homo sapiens, UniProt P11387).
T1 sequence (P11387 1-765): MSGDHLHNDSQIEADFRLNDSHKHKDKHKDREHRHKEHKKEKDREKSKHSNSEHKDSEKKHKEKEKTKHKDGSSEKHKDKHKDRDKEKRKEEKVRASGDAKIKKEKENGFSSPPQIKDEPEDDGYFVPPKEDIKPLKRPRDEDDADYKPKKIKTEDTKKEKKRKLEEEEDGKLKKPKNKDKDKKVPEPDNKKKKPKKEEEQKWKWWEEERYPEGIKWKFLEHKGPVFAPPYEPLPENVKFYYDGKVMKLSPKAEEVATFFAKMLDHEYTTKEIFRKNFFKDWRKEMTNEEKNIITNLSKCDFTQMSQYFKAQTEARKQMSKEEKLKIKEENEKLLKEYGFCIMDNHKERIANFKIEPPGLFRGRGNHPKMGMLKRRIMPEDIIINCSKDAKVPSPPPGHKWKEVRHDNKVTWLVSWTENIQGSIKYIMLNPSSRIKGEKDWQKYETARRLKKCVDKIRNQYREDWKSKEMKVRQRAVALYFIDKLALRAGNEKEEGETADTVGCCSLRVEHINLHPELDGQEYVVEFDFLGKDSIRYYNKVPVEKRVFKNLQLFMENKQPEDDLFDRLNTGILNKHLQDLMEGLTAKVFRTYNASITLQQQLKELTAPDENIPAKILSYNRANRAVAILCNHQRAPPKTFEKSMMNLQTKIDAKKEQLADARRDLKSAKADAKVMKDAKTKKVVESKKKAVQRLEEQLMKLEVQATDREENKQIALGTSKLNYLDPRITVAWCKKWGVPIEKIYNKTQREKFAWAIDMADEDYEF
Particulars: cited from earlier work.

The subject of assay [2] is HER2-positive human breast cancer ST1616B/TDR. Particulars: mouse, in vivo. The protocol:
(§1) Mouse: 6- to 12-week-old female immunodeficient Crl:Nu(Ncr)-Foxn1^Nu mice (Charles River Laboratories Japan, Inc.) were subjected to the experiment.
(§2) Assay and calculation expression: The major axis and minor axis of tumor were measured twice a week by using an electronic digital caliper, and the tumor volume (mm^3) was calculated. The calculation expression is as shown below. Tumor volume (mm^3)=0.52×Major axis (mm)×[Minor axis ([…])]^2
(§3) Tumor excised from a patient with HER2-positive breast cancer that acquired resistance after treatment with T-DM1 was maintained at several passages by transplantation to female immunodeficient mice. […] ST1616B/TDR is tumor derived from a patient who received T-DM1 by continuous administration for 13 months, and ST1360B/TDR is a tumor derived from a patient who received T-DM1 by continuous administration for 3 months.
(§4) A tumor section of the solid tumor was subcutaneously transplanted to the side of the body of each female immunodeficient mouse, and the mice were randomly grouped when the tumor volume reached about 200 mm^3.

Assay [3] concerns HER2-positive human breast cancer ST1360B/TDR. The conditions noted are these: mouse, in vivo. As to the method:
as §1, §2, §3, §4

Assay [4] relates to Breast cancer or gastric adenocarcinoma/esophagogastric junction adenocarcinoma. Particulars: human, in vivo. The text has this: Open-label, Phase 1 dose escalation study.
Part 1 study: Dose escalation study (conducted in Japan)
Breast cancer or gastric adenocarcinoma/esophagogastric junction adenocarcinoma
Objective response rate (ORR; complete response (CR)+partial response (PR)).
Disease control rate (DCR; CR+PR+stable disease (SD)).

For the molecule `CC[C@@]1(O)C(=O)OCc2c1cc1n(c2=O)Cc2c-1nc1cc(F)c(C)c3c1c2[C@@H](NC(=O)CO)CC3` [Compound 1], in assay [1] (Ogitani Y. et al., Clinical Cancer Research, 2016), the “topoisomerase I inhibitory effect” value is on record as “confirmed to have a topoisomerase I inhibitory effect”.
`CC[C@@]1(O)C(=O)OCc2c1cc1n(c2=O)Cc2c-1nc1cc(F)c(C)c3c1c2[C@@H](N)CC3` [exatecan, (1S,9S)-1-amino-9-ethyl-5-fluoro-1,2,3,9,12,15-hexahydro-9-hydroxy-4-methyl-10H,13H-benzo[de]pyrano[3′,4′:6,7]indolizino[1,2-b]quinolin-10,13-dione]: the “inhibitory activity on topoisomerase I” value in assay [1] (compared with SN-38 and topotecan) is “higher than SN-38”.
Turning to T-DM1, the “growth of the tumor (tumor volume)” value in assay [2] is listed as “did not inhibit the growth”. In assay [3], the “growth of the tumor (tumor volume)” value is “did not inhibit the growth”. In assay [4], this molecule came in with a DCR of 64% and an ORR of 18%.
